Measured values: patent publication US5847148A, “Thiadiazole derivatives useful for the treatment of diseases related to connective tissue degradation” (Pharmacia & Upjohn Company, priority 1997, dated 1998)

Molecular target: Stromelysin (Homo sapiens, UniProt P08254)
Experiment: MMP (stromelysin) inhibition, particle concentration fluorescence assay
Assay type: biochemical
Settings: in vitro; fluorescein/biotin substrate; MMP buffer pH 7.5; room temperature; 15 minutes preincubation, 1-3 hours; read-out: Stromelysin Ki (MMP Inhibition Constants)
Procedure: Inhibitory activity is evaluated in one or more of the MMP enzymes (stromelysin, gelatinase, and collagenase) in vitro using particle concentration fluorescence assay. An inhibitor binds to MMP enzymes which prevents the degradation of a substrate by stromelysin, gelatinase, or collagenase. The substrate has attached to it a fluorescein and a biotin moiety. The intact substrate then binds to an avidin-coated particle via the biotin moiety. Once the particle is washed and dried, a fluorescent signal is generated since the fluorescent group is attached to the particle. Without an inhibitor present, the substrate is degraded by MMP enzymes and the fluorescein group is removed, therefore, no fluorescent signal can be detected. Testing compounds are dissolved in DMSO to the desired concentration, then the solutions are diluted to 1:5 with MMP buffer (50 mM Tris-HCl, pH 7.5; 150 mM NaCl; 0.02% NaN3). Serial two-fold dilutions of each compound are prepared. A concentrated, activated enzyme solution is transferred into each plate of the testing compounds, and the mixture is incubated at room temperature for 15 minutes. […] At this point, the substrate mixture is mixed with 0.1% avidin-coated polystyrene particles. After 15 minutes, the fluorescence values are measured following filtration and washing of the beads. Ki values are then calculated.

Sequence of Stromelysin (P08254 100-477): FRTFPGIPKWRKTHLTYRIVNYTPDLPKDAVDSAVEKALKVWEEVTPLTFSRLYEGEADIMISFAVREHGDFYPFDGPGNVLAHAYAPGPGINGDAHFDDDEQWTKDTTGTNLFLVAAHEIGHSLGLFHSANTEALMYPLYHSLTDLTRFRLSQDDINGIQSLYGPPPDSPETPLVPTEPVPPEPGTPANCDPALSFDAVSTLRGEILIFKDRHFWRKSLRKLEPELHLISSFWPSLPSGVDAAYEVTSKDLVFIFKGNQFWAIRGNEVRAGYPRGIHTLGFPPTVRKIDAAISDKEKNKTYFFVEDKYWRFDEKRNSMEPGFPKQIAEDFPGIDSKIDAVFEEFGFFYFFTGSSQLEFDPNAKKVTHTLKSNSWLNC

Ki | SMILES
760 nM | CNC(=O)[C@@H](NC(=O)Nc1n[nH]c(=S)s1)[C@@H](C)OCc1ccccc1 [Example 66, 2-[[[(4,5-Dihydro-5-thioxo-1,3,4-thiadiazol-2-yl)amino]carbonyl]amino]-N-methyl-3-(phenylmethoxy)-(2S)-butanamide]
670 nM | CNC(=O)[C@@H](NC(=O)Nc1n[nH]c(=S)s1)[C@@H](C)OC(C)(C)C [Example 75, 2-[[[(4,5-Dihydro-5-thioxo-1,3,4-thiadiazol-2-yl)amino]carbonyl]amino]-3-(1,1-dimethylethoxy)-N-methyl-(S)-butanamide]

SMILES | Ki
COC(=O)[C@H](COC(C)(C)C)NC(=O)Nc1n[nH]c(=S)s1 [Example 67, N-[[(4,5-Dihydro-5-thioxo-1,3,4-thiadiazol-2-yl)amino]carbonyl]-O-(1,1-dimethylethoxy)-L-serine methyl ester] | 6700 nM
